Results reported in US7112676B2, “Pyrimido compounds having antiproliferative activity” (Hoffmann-La Roche Inc., priority 2002, dated 2006).

What was measured:
KDR = molecular target: T1, KDR (Homo sapiens, UniProt P35968); experiment: KDR kinase HTRF assay; assay type: biochemical; details: 0.3 mM ATP, read-out: IC50 (μM) - Enzyme Inhibition Assays KDR
T1 construct: EEE-tag
Protocol: (§1) To determine inhibition of KDR, FGFR, EGFR, and PDGFR activity, kinase assays were conducted using an HTRF (Homogeneous Time Resolved Fluorescence) assay. This assay is described in A. J. Kolb et. al., Drug Discovery Today, 1998, 3(7), p 333.
Prior to kinase reaction, recombinant EEE-tagged KDR was activated in the presence of activation buffer (50 mM HEPES, pH 7.4, 1 mM DTT, 10% glycerol, 150 mM NaCl, 0.1 mM EDTA, 26 mM MgCl2, and 4 mM ATP). The enzyme was incubated at 4° C. for 1 hour.
(§2) Kinase activity assays were performed in 96-well polypropylene plates (Falcon) with a total volume of 90 μL in each well. Each well contained 1 μM KDR substrate (Biotin-EEEEYFELVAKKKK), 1 nM activated KDR, and a test compound with one of 8 assay concentrations ranging from 100 μM to […] (1:5 serial dilution). The kinase activity assay was done in the presence of 100 mM HEPES, pH 7.4, 1 mM DTT, 0.1 mM Na2VO4, 25 mM MgCl2, 50 mM NaCl (from KDR stock solution), 1% DMSO (from compound), 0.3 mM ATP (at Km concentration) and 0.02% BSA. The reaction was incubated at 37° C. for 30 minutes. To stop the KDR reaction, 72 μL of reaction mixture was transferred into a STOP plate containing 18 μL of revelation buffer (20 mM EDTA, 50 mM HEPES, pH 7.4, 0.02% BSA, 10 nM Eu-labelled anti-pY antibody (final conc. 2 nM), and 100 nM streptavidin (final conc. 20 nM)). After mixing, 35 μL of solution was transferred into duplicate wells of a 384-well black plate (Costar), and read at 615/665 nm on a Wallac Victor 5 reader.
(§3) Compound IC50 values were determined from duplicate sets of data, and calculated by using Excel and fitting data to equation Y=[(a−b)/{1+(X/c)^d]+b, where a and b are enzyme activity in the presence of no test inhibitor compound and an infinite amount of inhibitor test compound, respectively, c is the IC50 and d is the hill constant of the compound response. The IC50 value is the concentration of test compound that reduces by 50% the enzyme activity under the test conditions described.

FGFR = molecular target: T2, FGFR; experiment: FGFR kinase HTRF assay; assay type: biochemical; details: 10 μM ATP, read-out: IC50 (μM) - Enzyme Inhibition Assays FGFR
T2 construct: fused on or other part: GST tag
Protocol: as §1, §2
FGFR, EGFR, and PDGFR activity assays were carried out as described above for the KDR activity assay with the following differences. GST-tagged FGFR enzyme was activated at room temperature for 1 hour in the following activation buffer: 100 mM HEPES, pH 7.4, 50 mM NaCl, 20 mM MgCl2, and 4 mM ATP. The kinase activity assay was performed with 1 μM substrate (Biotin-EEEEYFELV), 1.5 nM activated FGFR, and test compound in the presence of 100 mM HEPES, 1 mM DTT, 0.4 mM MgCl2, 0.4 mM MnCl2, 50 mM NaCl, 1% DMSO, 10 μM ATP (Km=8.5 μM for FGFR), 0.1 mM Na2VO4, and 0.02% BSA, in a total volume of 90 μL. The rest of the assay was performed in the same manner as KDR assay.
as §3

EGFR = EGFR (Homo sapiens, UniProt P00533); experiment: EGFR kinase HTRF assay; assay type: biochemical; details: 0.5 μM ATP, read-out: IC50 (μM) - Enzyme Inhibition Assays EGFR
Protocol: as §1, §2
The EGFR kinase activity assay was performed with 1 μM substrate (Biotin-EEEEYFELV), 1.5 nM EGFR, test compounds, 100 mM HEPES, pH 7.4, 1 mM DTT, 5 mM MgCl2, 2 mM MnCl2, 1% DMSO, 0.5 μM ATP (Km for EGFR), 0.1 mM Na2VO4, and 0.02% BSA. The rest of the assay was performed in the same manner as the KDR assay.
as §3

PDGFR = PDGFR kinase HTRF assay; assay type: biochemical; details: 2.3 μM ATP, read-out: IC50 (μM) - Enzyme Inhibition Assays PDGFR
Protocol: as §1, §2
The PDGFR kinase activity assay was performed with 1 μM substrate (Biotin-EEEEYFELV), 1.0 nM PDGFR, test compounds, 100 mM HEPES, pH 7.4, 1 mM DTT, 5 mM MgCl2, 2 mM MnCl2, 1% DMSO, 2.3 μM ATP (Km for PDGFR), 0.1 mM Na2VO4, and 0.02% BSA. The rest of the assay was performed in the same manner as the KDR assay.
as §3

VEGF-stimulated HUVEC = VEGF-stimulated HUVEC proliferation assay (BrdU); assay type: cell-based; details: Homo sapiens, VEGF 20 ng per mL, BrdU labeling, 24 hour exposure, read-out: IC50 (μM) of VEGF and FGF-Stimulated HUVEC Proliferation Assays HUVEC/VEFG
Protocol: (§4) The antiproliferative activity of test compounds of this invention in cell-based assays was evaluated by BrdU assay using the BrdU kit (Roche Biochemicals 1-647-229). Human umbilical vein endothelial cells (HUVEC, Clonetics CC-2519) were cultured in EGM-2 (Clonetics CC-3162) medium and seeded at 10000 cells per well in a volume of 200 μL of EGM-2 (Clonetics CC-3162) media in a 96-well flat bottom plates (Costar 3595) overnight. After 24 hours of growth at 37° C. with 5% CO2, the incubation media was removed slowly by aspiration and the content of each well was washed with 300 μL pre-warmed EBM-2 (Clonetics CC-3156) containing 50 μg per mL of gentamycin and 50 ng per mL of amphotercin-B (Clonetics CC-4083). Subsequently, the remaining media was again aspirated and replaced with 160 μL per well of serum starvation media (EBM-2 supplemented with 1% heat inactivated FBS (Clonetics CC-4102), 50 μg per mL gentamycin and 50 ng per mL of amphotercin-B (Clonetics CC-4083), 10 units per mL of Wyeth-Ayerst heparin (NDC0641-0391-25), and 2 mM L-glutamine (GIBCO 25030-081). After serum starving the cells for 24 hours, 20 μL of test compound at 10× test concentration in serum starvation medium with 2.5% DMSO was added to the appropriate wells. The control wells contained 20 μL of serum starvation medium with 2.5% DMSO. Plates were returned to the incubator for 2 hours. After pre-incubating the cells with the test compounds for 2 hours, 20 μL of growth factors at 10× assay concentration diluted in serum starvation media, FGF at 50 ng per mL, or VEGF (R&D systems 293-VE) at 200 ng per mL were added. The final concentration of FGF in the assay was 5 ng per mL and the final concentration of VEGF in the assays was 20 ng per mL. The growth factor free control wells had 20 μL per well of serum starvation media with the same amount of BSA as the wells with growth factors. The plates were returned to the incubator for an additional 22 hours.
(§5) After 24 hour exposure to the test compounds, the cells were labeled with BrdU (Roche Biochemicals 1-647-229), by adding 20 μL per well of BrdU labeling reagent that has been diluted (1:100) in serum starvation medium. The plates were then returned to the incubator for 4 hours. The labeling medium was removed by draining the medium onto paper towels. The cells were fixed and DNA denatured by adding 200 μL of fixation/denaturation solution to each well and incubating at room temperature for 45 minutes. The fixation/denaturation solution was drained onto paper towels and to each well was added 100 μL of anti-BrdU-POD and the wells were incubated for 2 hours at room temperature. The antibody solution was removed and the wells were each washed 3–4 times with 300 μl PBS. 100 μL of the TMB substrate solution was added to each well and the wells were incubated at room temperature for 5–8 minutes. The reaction was then stopped by adding 100 μL per well of 1 M phosphoric acid. The plates were read at 450 nm with reference wavelength of 650 nm. The percent inhibition for each test compound was calculated by subtracting the absorbency of the blank (no cells) wells from all wells, then subtracting the division of the average absorbency of each test duplicate by the average of the controls from 1. The final product was then multiplied by 100 (% of inhibition=(1−average absorbency of test duplicate/average of control)100). The IC50 value is the concentration of test compound that inhibits by 50% BrdU labeling, and is a measure of inhibition of cell proliferation. The IC50 is determined from the linear regression of a plot of the logarithm of the concentration versus percent inhibition.

FGF-stimulated HUVEC = FGF-stimulated HUVEC proliferation assay (BrdU); assay type: cell-based; details: Homo sapiens, FGF 5 ng per mL, BrdU labeling, 24 hour exposure, read-out: IC50 (μM) of VEGF and FGF-Stimulated HUVEC Proliferation Assays HUVEC/bFGFR
Protocol: as §4, §5

Measured: IC50

T1 sequence (P35968 20-1356, species assumed): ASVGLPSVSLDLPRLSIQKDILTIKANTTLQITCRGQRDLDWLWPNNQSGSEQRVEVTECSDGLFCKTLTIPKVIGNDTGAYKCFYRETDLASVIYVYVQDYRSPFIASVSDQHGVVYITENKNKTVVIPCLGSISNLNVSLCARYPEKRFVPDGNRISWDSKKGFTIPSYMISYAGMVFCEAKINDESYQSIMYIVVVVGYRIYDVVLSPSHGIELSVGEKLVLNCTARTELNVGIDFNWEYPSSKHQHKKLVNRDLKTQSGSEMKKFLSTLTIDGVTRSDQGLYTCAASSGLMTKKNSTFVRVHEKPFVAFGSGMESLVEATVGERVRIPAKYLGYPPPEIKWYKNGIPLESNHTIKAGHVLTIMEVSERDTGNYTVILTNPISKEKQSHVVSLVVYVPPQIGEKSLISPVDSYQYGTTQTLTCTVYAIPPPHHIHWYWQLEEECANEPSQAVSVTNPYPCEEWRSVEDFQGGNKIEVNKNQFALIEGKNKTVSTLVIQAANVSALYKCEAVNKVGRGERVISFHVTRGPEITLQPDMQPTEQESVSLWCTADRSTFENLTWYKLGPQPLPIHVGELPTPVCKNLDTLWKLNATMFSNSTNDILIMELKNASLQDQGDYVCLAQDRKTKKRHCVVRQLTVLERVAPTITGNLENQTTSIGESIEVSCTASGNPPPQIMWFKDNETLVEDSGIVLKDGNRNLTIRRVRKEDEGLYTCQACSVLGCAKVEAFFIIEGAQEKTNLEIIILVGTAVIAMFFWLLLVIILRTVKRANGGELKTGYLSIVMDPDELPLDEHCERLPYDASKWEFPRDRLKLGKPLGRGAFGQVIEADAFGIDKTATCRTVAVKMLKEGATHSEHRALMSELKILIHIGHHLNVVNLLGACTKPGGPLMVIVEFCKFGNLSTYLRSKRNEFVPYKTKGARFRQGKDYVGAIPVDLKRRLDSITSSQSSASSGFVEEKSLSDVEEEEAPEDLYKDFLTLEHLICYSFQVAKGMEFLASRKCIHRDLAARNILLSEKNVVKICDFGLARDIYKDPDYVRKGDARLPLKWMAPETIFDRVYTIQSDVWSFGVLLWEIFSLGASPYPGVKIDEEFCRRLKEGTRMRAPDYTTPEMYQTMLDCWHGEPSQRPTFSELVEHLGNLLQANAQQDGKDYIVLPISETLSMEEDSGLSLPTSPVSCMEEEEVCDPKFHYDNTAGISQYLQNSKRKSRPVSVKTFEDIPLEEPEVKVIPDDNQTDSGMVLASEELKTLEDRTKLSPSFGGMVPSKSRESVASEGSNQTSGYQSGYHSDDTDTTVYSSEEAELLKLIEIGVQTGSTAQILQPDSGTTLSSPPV
EGFR, sequence (P00533 25-1210, species assumed): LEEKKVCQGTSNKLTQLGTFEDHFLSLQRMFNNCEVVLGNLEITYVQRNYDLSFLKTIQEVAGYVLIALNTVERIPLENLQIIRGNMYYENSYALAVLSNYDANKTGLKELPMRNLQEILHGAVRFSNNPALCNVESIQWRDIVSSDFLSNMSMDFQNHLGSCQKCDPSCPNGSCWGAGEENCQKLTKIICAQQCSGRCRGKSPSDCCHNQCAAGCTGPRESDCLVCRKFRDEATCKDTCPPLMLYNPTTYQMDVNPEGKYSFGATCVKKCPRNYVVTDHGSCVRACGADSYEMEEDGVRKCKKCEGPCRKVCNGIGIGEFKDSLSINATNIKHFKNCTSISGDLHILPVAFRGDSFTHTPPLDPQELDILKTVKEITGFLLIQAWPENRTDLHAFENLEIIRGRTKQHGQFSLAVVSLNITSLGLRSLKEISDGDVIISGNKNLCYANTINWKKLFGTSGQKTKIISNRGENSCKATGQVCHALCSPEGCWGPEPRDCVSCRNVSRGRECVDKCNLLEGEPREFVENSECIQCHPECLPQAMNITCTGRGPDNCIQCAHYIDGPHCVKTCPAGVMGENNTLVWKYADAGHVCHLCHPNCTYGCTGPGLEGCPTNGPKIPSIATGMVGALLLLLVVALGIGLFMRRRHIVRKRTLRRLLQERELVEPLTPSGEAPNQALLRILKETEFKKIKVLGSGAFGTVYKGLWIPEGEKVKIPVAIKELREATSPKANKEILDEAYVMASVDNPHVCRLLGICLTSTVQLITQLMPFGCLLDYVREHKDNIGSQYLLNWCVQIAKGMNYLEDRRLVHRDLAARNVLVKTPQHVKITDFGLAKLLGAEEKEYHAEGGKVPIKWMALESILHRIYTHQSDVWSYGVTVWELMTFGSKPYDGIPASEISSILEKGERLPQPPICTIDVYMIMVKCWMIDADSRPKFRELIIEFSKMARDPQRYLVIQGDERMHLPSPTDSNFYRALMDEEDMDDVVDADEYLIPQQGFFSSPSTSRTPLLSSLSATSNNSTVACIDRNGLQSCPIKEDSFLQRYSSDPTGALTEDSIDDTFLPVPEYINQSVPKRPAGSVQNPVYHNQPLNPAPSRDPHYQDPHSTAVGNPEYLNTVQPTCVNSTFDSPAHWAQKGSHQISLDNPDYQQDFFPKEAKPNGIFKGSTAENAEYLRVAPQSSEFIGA

COc1ccc(N2C(=O)N([C@@H](C)c3ccccc3)c3nc(Nc4ccccc4)ncc3C2C)cc1 (stereo partly drawn) [Example 18, 3-(4-Methoxy-phenyl)-4-methyl-7-phenylamino-1-[1-(S)-phenyl-ethyl]-3,4-dihydro-1H-pyrimido[4,5-d]pyrimidin-2-one]
< 10 µM: all assays above
